# Data published in PMC5897141 (Journal of neurochemistry, 2018).
# Where “and” joins values, the source holds several entries; their conditions need not be identical. Equal values may be shown once. Read-outs that look alike come from different tables or passages of the source.
# What was measured:
# [1] = tested on: VAChT; format: in vivo, cynomolgus macaques
# [2] = HPLC radio-metabolite analysis of arterial plasma; format: in vivo, cynomolgus macaques
# [3] = tested on: VAChT; test: Test-retest reproducibility of BPND; format: in vivo, cynomolgus macaques; details: mean ± SD, 3 NHP subjects
# [4] = tested on: VAChT; details: Lassen plot, baseline vs (-)-vesamicol 0.125 mg/kg; subject A
# [5] = target: VAChT; details: ref Tu et al. 2015; cited from earlier work
# [6] = tested on: σ1/2 receptors; details: ref Tu et al. 2015; cited from earlier work
# [7] = 1TCM, striatum, mean ± SD, n = 3
# [8] = 2TCM, cerebellum-hemispheres, mean ± SD, n = 3
# [9] = 2TCM, frontal cortex, mean ± SD, n = 3
# [10] = 2TCM, hippocampus, mean ± SD, n = 3
# [11] = 2TCM, midbrain, mean ± SD, n = 3
# [12] = 2TCM, occipital cortex, mean ± SD, n = 3
# [13] = 2TCM, striatum, mean ± SD, n = 3
# [14] = 2TCM, temporal cortex, mean ± SD, n = 3
# [15] = 2TCM, thalamus, mean ± SD, n = 3
# [16] = 2TCM, white matter, mean ± SD, n = 3
# [17] = LoganAIF, striatum, mean ± SD, n = 3
# [18] = MA1, striatum, mean ± SD, n = 3
# [19] = RTM, reference cerebellum-hemispheres, striatum, mean ± SD, n = 7
# [20] = SRTM, reference cerebellum-hemispheres, striatum, mean ± SD, n = 7
# [21] = SRTM, frontal cortex, mean ± SD, n = 7
# [22] = SRTM, hippocampus, mean ± SD, n = 7
# [23] = SRTM, middle brain, mean ± SD, n = 7
# [24] = SRTM, occipital cortex, mean ± SD, n = 7
# [25] = SRTM, temporal cortex, mean ± SD, n = 7
# [26] = SRTM, thalamus, mean ± SD, n = 7
# [27] = SRTM, white matter, mean ± SD, n = 7
# [28] = after 20 min p.i., 3 NHP subjects
compound,measurement,setting,value
"O=C(c1ccc(F)cc1)C1CCN(C2Cc3c(cccc3OCCF)CC2O)CC1 (single isomer, unassigned; (-)) [[^18F]VAT, ((-)-(1-(-8-(2-fluoroethoxy)-3-hydroxy-1,2,3,4-tetrahydronaphthalen-2-yl)piperidin-4-yl)(4-fluorophenyl)-methanone)]",BPND,[1]; [7],2.69 ± 1.1 (24%)
same,DVR,[1]; [7],3.70 ± 1.1 (17%)
same,K1,[1]; [7],0.221 ± 0.20 (52%) mL·cm^−3·min^−1
same,VT,[1]; [7],22.12 ± 14.1 (37%) mL· cm^−3
same,k2,[1]; [7],0.009 ± 0.004 (26%) min^−1
same,BPND = DVR-1,"[1]; 2TCM, cerebellum-hemispheres (reference region), mean ± SD, n = 3",0.00 ± 0.00
same,K1,[1]; [8],0.144 ± 0.093 mL·cm^−3·min^−1
same,VT,[1]; [8],5.85 ± 5.88 mL· cm^−3
same,k2,[1]; [8],0.063 ± 0.010 min⁻¹
same,k3,[1]; [8],0.007 ± 0.005 min⁻¹
same,k3 / k4,[1]; [8],1.09 ± 0.84
same,k4,[1]; [8],0.004 ± 0.003 min⁻¹
same,BPND = DVR-1,[1]; [9],0.44 ± 0.10
same,K1,[1]; [9],0.103 ± 0.046 mL·cm^−3·min^−1
same,VT,[1]; [9],7.13 ± 6.52 mL· cm^−3
same,k2,[1]; [9],0.035 ± 0.004 min⁻¹
same,k3,[1]; [9],0.010 ± 0.012 min⁻¹
same,k3 / k4,[1]; [9],0.94 ± 0.64
same,k4,[1]; [9],0.004 ± 0.001 min⁻¹
same,BPND = DVR-1,[1]; [10],0.61 ± 0.41
same,K1,[1]; [10],0.102 ± 0.059 mL·cm^−3·min^−1
same,VT,[1]; [10],7.46 ± 5.56 mL· cm^−3
same,k2,[1]; [10],0.035 ± 0.008 min⁻¹
same,k3,[1]; [10],0.014 ± 0.010 min⁻¹
same,k3 / k4,[1]; [10],1.15 ± 0.62
same,k4,[1]; [10],0.014 ± 0.013 min⁻¹
same,BPND = DVR-1,[1]; [11],0.18 ± 0.13
same,K1,[1]; [11],0.107 ± 0.091 mL·cm^−3·min^−1
same,VT,[1]; [11],5.61 ± 4.55 mL· cm^−3
same,k2,[1]; [11],0.039 ± 0.009 min⁻¹
same,k3,[1]; [11],0.007 ± 0.003 min⁻¹
same,k3 / k4,[1]; [11],1.06 ± 0.30
same,k4,[1]; [11],0.006 ± 0.001 min⁻¹
same,BPND = DVR-1,[1]; [12],0.12 ± 0.075
same,K1,[1]; [12],0.101 ± 0.054 mL·cm^−3·min^−1
same,VT,[1]; [12],5.51 ± 4.97 mL· cm^−3
same,k2,[1]; [12],0.039 ± 0.005 min⁻¹
same,k3,[1]; [12],0.004 ± 0.001 min⁻¹
same,k3 / k4,[1]; [12],0.82 ± 0.53
same,k4,[1]; [12],0.005 ± 0.001 min⁻¹
same,DVR,[1]; [13],4.37 ± 0.34 (4%)
same,K1,[1]; [13],0.113 ± 0.068 (35%) mL·cm^−3·min^−1 and 0.113 ± 0.068 mL·cm^−3·min^−1
same,VT,[1]; [13],22.31 ± 20.7 (54%) mL· cm^−3 and 22.31 ± 20.71 mL· cm^−3
same,k2,[1]; [13],0.027 ± 0.005 (11%) min^−1 and 0.027 ± 0.005 min^−1
same,k3,[1]; [13],0.019 ± 0.009 (27%) min^−1 and 0.019 ± 0.009 min^−1
same,k3 / k4,[1]; [13],3.52 ± 1.14
same,k4,[1]; [13],0.005 ± 0.001 (12%) min^−1 and 0.005 ± 0.001 min^−1
same,BPND = DVR-1,[1]; [14],0.097 ± 0.076
same,K1,[1]; [14],0.086 ± 0.042 mL·cm^−3·min^−1
same,VT,[1]; [14],5.23 ± 4.45 mL· cm^−3
same,k2,[1]; [14],0.033 ± 0.003 min⁻¹
same,k3,[1]; [14],0.003 ± 0.001 min⁻¹
same,k3 / k4,[1]; [14],0.74 ± 0.48
same,k4,[1]; [14],0.005 ± 0.002 min⁻¹
same,BPND = DVR-1,[1]; [15],1.16 ± 0.24
same,K1,[1]; [15],0.112 ± 0.061 mL·cm^−3·min^−1
same,VT,[1]; [15],10.09 ± 8.25 mL· cm^−3
same,k2,[1]; [15],0.030 ± 0.004 min⁻¹
same,k3,[1]; [15],0.006 ± 0.002 min⁻¹
same,k3 / k4,[1]; [15],1.38 ± 0.26
same,k4,[1]; [15],0.004 ± 0.001 min⁻¹
same,BPND = DVR-1,"[1]; 2TCM, vermis, mean ± SD, n = 3",0.22 ± 0.55
same,K1,"[1]; 2TCM, vermis, mean ± SD, n = 3",0.180 ± 0.069 mL·cm^−3·min^−1
same,VT,"[1]; 2TCM, vermis, mean ± SD, n = 3",4.77 ± 2.72 mL· cm^−3
same,k2,"[1]; 2TCM, vermis, mean ± SD, n = 3",0.068 ± 0.005 min⁻¹
same,k3,"[1]; 2TCM, vermis, mean ± SD, n = 3",0.004 ± 0.003 min⁻¹
same,k3 / k4,"[1]; 2TCM, vermis, mean ± SD, n = 3",0.75 ± 0.43
same,k4,"[1]; 2TCM, vermis, mean ± SD, n = 3",0.005 ± 0.001 min⁻¹
same,BPND = DVR-1,[1]; [16],0.21 ± 0.13
same,K1,[1]; [16],0.065 ± 0.041 mL·cm^−3·min^−1
same,VT,[1]; [16],5.66 ± 4.49 mL· cm^−3
same,k2,[1]; [16],0.026 ± 0.005 min⁻¹
same,k3,[1]; [16],0.006 ± 0.002 min⁻¹
same,k3 / k4,[1]; [16],1.01 ± 0.32
same,k4,[1]; [16],0.006 ± 0.001 min⁻¹
same,BPND,[1]; [17],2.58 ± 0.9 (20%)
same,DVR,[1]; [17],3.58 ± 0.9 (15%)
same,VT,[1]; [17],16.87 ± 17 (58%) mL· cm^−3
same,DVR,"[1]; LoganREF, reference cerebellum-hemispheres, striatum, mean ± SD, n = 7",3.11 ± 0.43 (5%)
same,BPND,"[1]; LoganREF, frontal cortex, mean ± SD, n = 7",0.29 ± 0.2
same,BPND,"[1]; LoganREF, hippocampus, mean ± SD, n = 7",0.47 ± 0.3
same,BPND,"[1]; LoganREF, middle brain, mean ± SD, n = 7",0.15 ± 0.2
same,BPND,"[1]; LoganREF, occipital cortex, mean ± SD, n = 7",0.13 ± 0.1
same,Striatal BPND,"[1]; LoganREF, scan duration for analysis 45 min, mean ± SD, n = 7",1.60 ± 0.58
same,Striatal BPND,"[1]; LoganREF, scan duration for analysis 60 min, mean ± SD, n = 7",1.69 ± 0.49
same,Striatal BPND,"[1]; LoganREF, scan duration for analysis 90 min, mean ± SD, n = 7",1.86 ± 0.45
same,BPND,"[1]; LoganREF, temporal cortex, mean ± SD, n = 7",0.11 ± 0.1
same,BPND,"[1]; LoganREF, thalamus, mean ± SD, n = 7",0.76 ± 0.3
same,BPND,"[1]; LoganREF, vermis, mean ± SD, n = 7",0.063 ± 0.2
same,BPND,"[1]; LoganREF, white matter, mean ± SD, n = 7",0.17 ± 0.2
same,BPND,[1]; [18],2.17 ± 1 (27%)
same,DVR,[1]; [18],3.17 ± 1 (18%)
same,VT,[1]; [18],21.45 ± 14 (38%) mL· cm^−3
same,BPND,[1]; [19],2.11 ± 0.46 (8%)
same,DVR,[1]; [19],3.11 ± 0.46 (6%)
same,R1 = K1/K1′,[1]; [19],( ^*** R1 = K1/K1′ 0.847 ± 0.08 (4%))
same,k2,[1]; [19],0.17 ± 0.16 (36%) min^−1
same,k3,[1]; [19],0.05 ± 0.04 (30%) min^−1
same,k4,[1]; [19],0.025 ± 0.02 (30%) min^−1
same,DVR,[1]; [20],3.15 ± 0.46 (6%)
same,k2,[1]; [20],0.032 ± 0.007 (8%) min^−1 and 0.032 ± 0.01 min^−1
same,BPND,[1]; [21],0.32 ± 0.2
same,R1,[1]; [21],0.82 ± 0.3
same,k2,[1]; [21],0.055 ± 0.02 min⁻¹
same,BPND,[1]; [22],0.48 ± 0.2
same,R1,[1]; [22],0.79 ± 0.1
same,k2,[1]; [22],0.053 ± 0.04 min⁻¹
same,BPND,[1]; [23],0.17 ± 0.1
same,R1,[1]; [23],0.74 ± 0.2
same,k2,[1]; [23],0.066 ± 0.1 min⁻¹
same,BPND,[1]; [24],0.12 ± 0.1
same,R1,[1]; [24],0.81 ± 0.3
same,k2,[1]; [24],0.053 ± 0.02 min⁻¹
same,Striatal BPND,"[1]; SRTM, scan duration for analysis 45 min, mean ± SD, n = 7",2.67 ± 1.14
same,Striatal BPND,"[1]; SRTM, scan duration for analysis 60 min, mean ± SD, n = 7",2.14 ± 0.49
same,Striatal BPND,"[1]; SRTM, scan duration for analysis 90 min, mean ± SD, n = 7",2.18 ± 0.37
same,BPND,[1]; [25],0.10 ± 0.08
same,R1,[1]; [25],0.63 ± 0.2
same,k2,[1]; [25],0.074 ± 0.07 min⁻¹
same,BPND,[1]; [26],0.79 ± 0.3
same,R1,[1]; [26],0.95 ± 0.2
same,k2,[1]; [26],0.059 ± 0.02 min⁻¹
same,BPND,"[1]; SRTM, vermis, mean ± SD, n = 7",0.081 ± 0.07
same,R1,"[1]; SRTM, vermis, mean ± SD, n = 7",1.08 ± 0.4
same,k2,"[1]; SRTM, vermis, mean ± SD, n = 7",0.064 ± 0.6 min⁻¹
same,BPND,[1]; [27],0.17 ± 0.2
same,R1,[1]; [27],0.47 ± 0.1
same,k2,[1]; [27],0.032 ± 0.01 min⁻¹
same,time of peak striatal uptake,[1]; after tracer injection,about 20 min
same,percentile of unmetabolized parental tracer in plasma,[2]; 2 min post-injection,96% ± 1
same,percentile of unmetabolized parental tracer in plasma,[2]; 90 min post-injection,14% ± 2.7
same,parent tracer as share of total radioactivity in plasma,[2]; [28],over 60%
same,polar metabolites as share of total radioactivity in plasma,[2]; [28],~ 40%
same,time of peak concentration of parental compound in plasma,[2]; post-injection,less than 1 min
same,retest BPND,"[3]; LoganREF, frontal cortex",0.29 ± 0.08
same,test BPND,"[3]; LoganREF, frontal cortex",0.29 ± 0.06
same,retest BPND,"[3]; LoganREF, hippocampus",0.47 ± 0.19
same,test BPND,"[3]; LoganREF, hippocampus",0.46 ± 0.18
same,retest BPND,"[3]; LoganREF, striatum",2.26 ± 0.46
same,test BPND,"[3]; LoganREF, striatum",2.39 ± 0.73
same,retest BPND,"[3]; LoganREF, thalamus",0.74 ± 0.09
same,test BPND,"[3]; LoganREF, thalamus",0.70 ± 0.10
same,retest BPND,"[3]; SRTM, frontal cortex",0.30 ± 0.03
same,test BPND,"[3]; SRTM, frontal cortex",0.32 ± 0.07
same,retest BPND,"[3]; SRTM, hippocampus",0.48 ± 0.14
same,test BPND,"[3]; SRTM, hippocampus",0.46 ± 0.16
same,retest BPND,"[3]; SRTM, striatum",2.15 ± 0.38
same,test BPND,"[3]; SRTM, striatum",2.38 ± 0.69
same,retest BPND,"[3]; SRTM, thalamus",0.77 ± 0.12
same,test BPND,"[3]; SRTM, thalamus",0.77 ± 0.13
same,VND (non-displaceable distribution volume),[4],~ 1.27
same,Ki,[5],0.59 nM
same,selectivity for VAChT versus σ1/2 receptors,[6],"over 10,000 fold"
